Measured values: patent US11634434B2, “Bifunctional alpha-synuclein binding agents and uses thereof” (University of Saskatchewan, priority 2016, dated 2023)
Values joined by “and” are separate entries in the source; they are usually repeats but may differ in a detail not shown here. Equal values may be shown once.

Target: T1, alpha-synuclein (Homo sapiens, UniProt P37840)
Assay: Isothermal titration calorimetry (ITC) binding to alpha-synuclein; on Bind to N and C?: key: Y indicates yes; N indicates no
Conditions: 100 mM KCl versus 1.0M KCl
Procedure: (§1) Nanopore analysis and isothermal titration calorimetry were performed as described previously.^21,54

SMILES | increase of Ka for a 10-fold decrease in ionic strength
Cn1c(=O)c2c(nc(CCCCCCc3nc4c(c(=O)n(C)c(=O)n4C)n3C)n2C)n(C)c1=O [Compound C8-6-C8] | does not increase

Same assay, conditions: ITC in 100 mM KCl

SMILES | # of Binding sites | Ka
Cn1c(=O)c2c(nc(CCCCCCc3nc4c(c(=O)n(C)c(=O)n4C)n3C)n2C)n(C)c1=O [Compound C8-6-C8] | 0.25 | 1.8e+08 M⁻¹

Same assay, conditions: ITC in 1.0M KCl

SMILES | Ka
Cn1c(=O)c2c(nc(CCCCCCc3nc4c(c(=O)n(C)c(=O)n4C)n3C)n2C)n(C)c1=O [Compound C8-6-C8] | 2e+08 M⁻¹ and 280000 M⁻¹
Cn1c(=O)c2c(ncn2CCCCCCn2cnc3c2c(=O)n(C)c(=O)n3C)n(C)c1=O [Compound C7-6-C7] | 720000 M⁻¹
Cn1c(=O)c2c(ncn2CCCCCCN2CCCC2c2cccnc2)n(C)c1=O (racemic) [Compound C7-6-N] | 5.1e+06 M⁻¹
N[C@H]1CCc2ccccc21 [S-Aminoindan, reference compound] | 3.1e+06 M⁻¹
CN1CCC[C@H]1c1cccnc1 [S-Nicotine, reference compound] | 400000 M⁻¹
N[C@@H]1CCc2ccccc21 [R-Aminoindan, reference compound] | 1e+06 M⁻¹
Cn1c(=O)c2c(ncn2CCCCCCNC2CCc3ccccc32)n(C)c1=O (stereo not drawn) [Compound C7-6-I] | 2.6e+06 M⁻¹

Same assay, conditions: ITC in 1.0M KCl; bifunctional molecules (or monomers) per alpha-synuclein molecule, best fit

SMILES | # of Binding sites
Cn1c(=O)c2c(nc(CCCCCCc3nc4c(c(=O)n(C)c(=O)n4C)n3C)n2C)n(C)c1=O [Compound C8-6-C8] | 0.25
Cn1c(=O)c2c(ncn2CCCCCCn2cnc3c2c(=O)n(C)c(=O)n3C)n(C)c1=O [Compound C7-6-C7] | 2
Cn1c(=O)c2c(ncn2CCCCCCN2CCCC2c2cccnc2)n(C)c1=O (racemic) [Compound C7-6-N] | 1
N[C@H]1CCc2ccccc21 [S-Aminoindan, reference compound] | 1
CN1CCC[C@H]1c1cccnc1 [S-Nicotine, reference compound] | 1
CN1CCC[C@@H]1c1cccnc1 [R-Nicotine, reference compound] | 1
N[C@@H]1CCc2ccccc21 [R-Aminoindan, reference compound] | 1
Cn1c(=O)c2c(ncn2CCCCCCNC2CCc3ccccc32)n(C)c1=O (stereo not drawn) [Compound C7-6-I] | 1

Same assay, conditions: Ka

SMILES | Kd
CN1CCCC1c1cccnc1 (stereo not drawn) [Nicotine, nicotine, reference compound] | 1 µM
CN1CCC[C@@H]1c1cccnc1 [R-Nicotine, reference compound] | 0.714 µM

Same assay, conditions: Table 2

SMILES | # Binding sites
CN1CCCC1c1cccnc1 (stereo not drawn) [Nicotine, nicotine, reference compound] | 1
Cn1c(=O)c2c(nc(CCCCCCc3nc4c(c(=O)n(C)c(=O)n4C)n3C)n2C)n(C)c1=O [Compound C8-6-C8] | 0.25
Cn1c(=O)c2c(ncn2CCNC2CCc3ccccc32)n(C)c1=O (stereo not drawn) [Compound C7-2-I] | 1
Cn1c(=O)c2c(nc(CCc3nc4c(c(=O)n(C)c(=O)n4C)n3C)n2C)n(C)c1=O [Compound C8-2-C8] | 1
Cn1c(=O)c2c(ncn2CCCCCCCCn2cnc3c2c(=O)n(C)c(=O)n3C)n(C)c1=O [Compound C7-8-C7] | 0.5
Cn1c(=O)c2c(ncn2CCCCn2cnc3c2c(=O)n(C)c(=O)n3C)n(C)c1=O [Compound C7-4-C7] | 0.5
Cn1c(=O)c2c(ncn2CCCCCCCCN2CCCC2c2cccnc2)n(C)c1=O (racemic) [Compound C7-8-N] | 1
Cn1c(=O)c2c(ncn2CCCCCCn2cnc3c2c(=O)n(C)c(=O)n3C)n(C)c1=O [Compound C7-6-C7] | 2
Cn1c(=O)c2c(ncn2CCCCCCN2CCCC2c2cccnc2)n(C)c1=O (racemic) [Compound C7-6-N] | 1
N[C@H]1CCc2ccccc21 [S-Aminoindan, reference compound] | 1
N[C@@H]1CCc2ccccc21 [R-Aminoindan, reference compound] | 1
Cn1c(=O)c2c(ncn2CCCCCCNC2CCc3ccccc32)n(C)c1=O (stereo not drawn) [Compound C7-6-I] | 1

Same assay, conditions: Table 2, ITC

SMILES | Ka
Cn1c(=O)c2c(nc(CCCCCCc3nc4c(c(=O)n(C)c(=O)n4C)n3C)n2C)n(C)c1=O [Compound C8-6-C8] | 2e+08 M⁻¹
Cn1c(=O)c2c(ncn2CCNC2CCc3ccccc32)n(C)c1=O (stereo not drawn) [Compound C7-2-I] | 90000 M⁻¹
Cn1c(=O)c2c(nc(CCc3nc4c(c(=O)n(C)c(=O)n4C)n3C)n2C)n(C)c1=O [Compound C8-2-C8] | 900000 M⁻¹
Cn1c(=O)c2c(ncn2CCCCCCCCn2cnc3c2c(=O)n(C)c(=O)n3C)n(C)c1=O [Compound C7-8-C7] | 400000 M⁻¹
Cn1c(=O)c2c(ncn2CCCCn2cnc3c2c(=O)n(C)c(=O)n3C)n(C)c1=O [Compound C7-4-C7] | 1e+07 M⁻¹
Cn1c(=O)c2c(ncn2CCCCCCCCN2CCCC2c2cccnc2)n(C)c1=O (racemic) [Compound C7-8-N] | 4e+06 M⁻¹
Cn1c(=O)c2c(ncn2CCCCCCn2cnc3c2c(=O)n(C)c(=O)n3C)n(C)c1=O [Compound C7-6-C7] | 700000 M⁻¹
Cn1c(=O)c2c(ncn2CCCCCCN2CCCC2c2cccnc2)n(C)c1=O (racemic) [Compound C7-6-N] | 5e+06 M⁻¹
N[C@H]1CCc2ccccc21 [S-Aminoindan, reference compound] | 3e+06 M⁻¹
N[C@@H]1CCc2ccccc21 [R-Aminoindan, reference compound] | 1e+06 M⁻¹
Cn1c(=O)c2c(ncn2CCCCCCNC2CCc3ccccc32)n(C)c1=O (stereo not drawn) [Compound C7-6-I] | 2e+06 M⁻¹

Same assay, conditions: binds to both N and C portions of alpha-synuclein

SMILES | Bind to N and C?
CN1CCCC1c1cccnc1 (stereo not drawn) [Nicotine, nicotine, reference compound] | Y
Cn1c(=O)c2c(nc(CCCCCCc3nc4c(c(=O)n(C)c(=O)n4C)n3C)n2C)n(C)c1=O [Compound C8-6-C8] | Y
Cn1c(=O)c2c(ncn2CCNC2CCc3ccccc32)n(C)c1=O (stereo not drawn) [Compound C7-2-I] | Y
Cn1c(=O)c2c(nc(CCc3nc4c(c(=O)n(C)c(=O)n4C)n3C)n2C)n(C)c1=O [Compound C8-2-C8] | Y
Cn1c(=O)c2c(ncn2CCCCCCCCn2cnc3c2c(=O)n(C)c(=O)n3C)n(C)c1=O [Compound C7-8-C7] | Y
Cn1c(=O)c2c(ncn2CCCCn2cnc3c2c(=O)n(C)c(=O)n3C)n(C)c1=O [Compound C7-4-C7] | Y
Cn1c(=O)c2c(ncn2CCCCCCCCN2CCCC2c2cccnc2)n(C)c1=O (racemic) [Compound C7-8-N] | Y
Cn1c(=O)c2c(ncn2CCCCCCn2cnc3c2c(=O)n(C)c(=O)n3C)n(C)c1=O [Compound C7-6-C7] | Y
Cn1c(=O)c2c(ncn2CCCCCCN2CCCC2c2cccnc2)n(C)c1=O (racemic) [Compound C7-6-N] | Y
N[C@H]1CCc2ccccc21 [S-Aminoindan, reference compound] | Y
N[C@@H]1CCc2ccccc21 [R-Aminoindan, reference compound] | Y
Cn1c(=O)c2c(ncn2CCCCCCNC2CCc3ccccc32)n(C)c1=O (stereo not drawn) [Compound C7-6-I] | Y

Tested on: yeast strain 2AS (2 copies of AS-GFP gene)
Assay: not given
Type: cell-based
Conditions: 1 micromolar compound + 5 mM galactose
Procedure: (§2) Third, the drugs were assayed in a yeast model of Parkinson's Disease, which expresses an alpha-synuclein-Green Fluorescent Protein (AS-GFP) construct under the control of a galactose promoter.
Construction of the 1AS and 2AS strains has been described in detail previously.^55 Strains were grown in YPD supplemented with 30 μg/ml of all amino acids. The OD600 was adjusted to 0.05 in drop-out media (no uracil) at 30° C. Drugs were dissolved in methanol at 0.01 micromolar, 0.1 micromolar, 1 micromolar or 10 micromolar followed by addition of 100 micromolar or 5 mM galactose to a final volume of 10 mL.

SMILES | lag before growth rescue / reaching the growth plateau | growth of 2AS yeast
Cn1c(=O)c2c(nc(CCCCCCc3nc4c(c(=O)n(C)c(=O)n4C)n3C)n2C)n(C)c1=O [Compound C8-6-C8] | about 6 hours | 
Cn1c(=O)c2c(ncn2CCCCCCn2cnc3c2c(=O)n(C)c(=O)n3C)n(C)c1=O [Compound C7-6-C7] |  | marginal growth rescue
Cn1c(=O)c2c(ncn2CCCCCCN2CCCC2c2cccnc2)n(C)c1=O (racemic) [Compound C7-6-N] | about 6 hours | 
Cn1c(=O)c2c(ncn2CCCCCCNC2CCc3ccccc32)n(C)c1=O (stereo not drawn) [Compound C7-6-I] | about 6 hours | moderate growth

Tested on: WT yeast
Assay: Yeast growth curves (OD600), toxicity of drugs on WT yeast
Type: cell-based
Conditions: 100 micromolar compound

SMILES | toxicity on WT yeast
Cn1c(=O)c2c(nc(CCCCCCc3nc4c(c(=O)n(C)c(=O)n4C)n3C)n2C)n(C)c1=O [Compound C8-6-C8] | toxic

Tested on: alpha-synuclein-GFP aggregation in yeast strain 2AS
Assay: not given
Type: cell-based
Conditions: 1 micromolar compound, 5 mM galactose, up to 12 hours
Procedure: as §2
For Analysis of AS-GFP distribution, the 2AS strain was grown overnight in drop-out media. After normalization of culture density, galactose was administered to a final concentration of 5 mM. […] For the yeast recovery assay, yeast cells were obtained after 6 hours induction with 5 mM galactose concentration, washed in galactose free media and the compounds were added to a final concentration of 1 micromolar in a 2 mL reaction mixture. The culture was incubated at 30° C. for 3, 6, and 9 hour intervals. Images were obtained at each interval using an Olympus Infinity (BX51) fluorescence microscope at 100× magnification.

SMILES | AS-GFP foci / fluorescence pattern
Cn1c(=O)c2c(ncn2CCCCCCNC2CCc3ccccc32)n(C)c1=O (stereo not drawn) [Compound C7-6-I] | more diffuse area of fluorescence

Target: T1, alpha-synuclein
Assay: Nanopore analysis of alpha-synuclein (blockade current histograms)
Type: binding
Conditions: 1 micromolar alpha-synuclein, 20 micromolar compound, FIG. 3
Procedure: The bifunctional molecules were characterized by four different methods. […] If the compound causes a more compact conformation, then the alpha-synuclein can no longer translocate and it simply bumps into the pore giving rise to a very small change in the blockade current.^44-46
as §1

SMILES | nanopore profile (bumping peak / binding)
Cn1c(=O)c2c(nc(CCCCCCc3nc4c(c(=O)n(C)c(=O)n4C)n3C)n2C)n(C)c1=O [Compound C8-6-C8] | predominantly bumping peaks
Cn1c(=O)c2c(ncn2CCCCCCn2cnc3c2c(=O)n(C)c(=O)n3C)n(C)c1=O [Compound C7-6-C7] | predominantly bumping peaks

Same assay, conditions: FIGS. 9A-9D

SMILES | nanopore profile of additional bifunctional molecules
Cn1c(=O)c2c(ncn2CCNC2CCc3ccccc32)n(C)c1=O (stereo not drawn) [Compound C7-2-I] | significant bumping peaks
Cn1c(=O)c2c(nc(CCc3nc4c(c(=O)n(C)c(=O)n4C)n3C)n2C)n(C)c1=O [Compound C8-2-C8] | significant bumping peaks
Cn1c(=O)c2c(ncn2CCCCCCCCn2cnc3c2c(=O)n(C)c(=O)n3C)n(C)c1=O [Compound C7-8-C7] | significant bumping peaks
Cn1c(=O)c2c(ncn2CCCCn2cnc3c2c(=O)n(C)c(=O)n3C)n(C)c1=O [Compound C7-4-C7] | significant bumping peaks
Cn1c(=O)c2c(ncn2CCCCCCCCN2CCCC2c2cccnc2)n(C)c1=O (racemic) [Compound C7-8-N] | bumping peaks, but have a shifted translocation peak visible as well
